In patent publication US20190054067A1, “COMPOSITIONS AND METHODS FOR TREATING COMPULSIVE-LIKE BEHAVIOR IN A SUBJECT” (UNIVERSITY OF THE SCIENCES, priority 2016, published 2019):

What was measured:
[1] = molecular target: low sensitivity (LS) α4β2 receptors (Homo sapiens, UniProt P17787+P43681); details: cited from earlier work
[2] = test system: compulsive-like BIG male mice; assay: compulsive-like nest building (NB) behavior; format: in vivo, Mus musculus; details: for overall nesting scores vs control (saline) / overall nesting scores vs control: 0-24 h; for suppression of NB vs control: chronic (daily s.c., tested day 30); for overall nesting scores vs control: chronic; for effect on NB (ANOVA over dose groups): chronic, 2, 4 and 6 mg/kg groups
Experimental: (§1) Compulsive-like BIG male mice, Mus musculus, were raised on wood shavings in polypropylene cages (27×17×12 cm) under controlled temperature (22±1° C.) and light (12:12 light-dark cycle) with free access to food (Purina Mills, Lab Diet Mouse Diet #5015, St. Louis, Mo.) and water. Animals were approximately 12-16 weeks of age at the start of each experiment.
(§2) Deformylflustrabromine hydrochloride (dFBr; Abcam Biochemicals) was dissolved in physiological saline (pH=6.7) to yield final doses of 2.0 mg/kg (0.27 mg/mL), 4 mg/kg (0.53 mg/mL) and 6 mg/kg (0.80 mg/mL). Saline was used as a vehicle control (0 mg/kg). A mouse of 40 g received an injection volume of 0.3 mL. Injection volumes were proportionally adjusted according to the body weight of individual animals.
Acute Study: Male BIG mice were divided into four treatment groups comprising vehicle (sterile saline), 2 mg/kg, 4 mg/kg and 6 mg/kg. Animals in each group (n=12 per group) were tested for nesting on day 1, MB on day 3 and open field (OF) on day 5. On the first day of testing animals randomly received dFBr or vehicle subcutaneously and in subsequent tests received the same dose. Days 2 and 4 were employed to avoid any residual effects of dFBr from previous administration. For nesting, data were collected after 1, 2, 3, 4, 5 and 24 h due to the progressive nature of the NB (The BIG mice typically get excited and indulge in excessive and repetitive NB when introduced to cotton for the first 3-4 h in the light cycle. This excessive and repetitive nesting activity resumes again in the dark cycle). MB and OF behavior was performed 2 h after dFBr administration (FIG. 1).
Chronic Study; Since the foundation of the animal model was established through effective reversal of compulsive-like NB and MB behaviors by chronic fluoxetine treatment, a chronic regimen was also conducted to establish the sustained and long term effects of dFBr on NB and MB. Animals belonging to 0, 2, 4 and 6 mg/kg dose group (n=12 per group) received single subcutaneous injection of dFBr or saline daily for 32 days. NB, MB and OF behaviors were assessed in the final week (weeks 5) after dFBr administration (NB after 1, 2, 3, 4, 5 and 24 h, and MB after 2 h of drug injection). NB was performed on day 30, MB on day 31 and OF on day 32 (FIG. 1).
Nest-building behavior was performed to assess compulsive-like behavior in the mice. For both acute and chronic studies, immediately following subcutaneous injection of dFBr, compulsive-like male mice were singly housed and provided with a pre-weighed roll of cotton (Mountain Mist cotton batting, Troy, Inc., Chicago, Ill.) in the cage-top food hopper. The cotton roll was weighed after 1, 2, 3, 4, 5 and 24 hours. Nesting behavior was quantified by the grams of cotton used during each testing period.
Statistical analysis was performed in Graphpad Prism (GraphPad Software, Inc) and Statistical Analysis System Software (Version 9.4, Cary, N.C.). Nest-building (grams of cotton), marble burying (number of marbles at least ⅔ buried) and open field measures (time in center and total distance travelled) were expressed as the mean±standard error of the mean (SEM). The nest building data were shown as grams of cotton used, whereas the statistical analysis was conducted on the square-root transformed nesting scores in order to normalize the data (Bult & Lynch, 2000, Behavior Genetics 30:193-206). Nesting scores at different time points, marble burying and open field results were analyzed by one-way analysis of variance (ANOVA), whereas overall drug and drug by time interaction effect between 0-5 hours was done by two-way analysis of variance (ANOVA). Pairwise comparisons for significant differences were tested by the post-hoc Bonferroni multiple comparison test. A probability level of p<0.05 was used as an index of statistical significance in all cases.

[3] = test system: compulsive-like BIG male mice; assay: open field (OF) test, anxiety-like and locomotor behavior; format: in vivo, Mus musculus
Experimental: as §1, §2
Acute Study: Male BIG mice were divided into four treatment groups comprising vehicle (sterile saline), 2 mg/kg, 4 mg/kg and 6 mg/kg. Animals in each group (n=12 per group) were tested for nesting on day 1, MB on day 3 and open field (OF) on day 5. On the first day of testing animals randomly received dFBr or vehicle subcutaneously and in subsequent tests received the same dose. Days 2 and 4 were employed to avoid any residual effects of dFBr from previous administration. […]
Chronic Study; Since the foundation of the animal model was established through effective reversal of compulsive-like NB and MB behaviors by chronic fluoxetine treatment, a chronic regimen was also conducted to establish the sustained and long term effects of dFBr on NB and MB. […] NB, MB and OF behaviors were assessed in the final week (weeks 5) after dFBr administration (NB after 1, 2, 3, 4, 5 and 24 h, and MB after 2 h of drug injection). […]
Anxiety-like behaviors were determined through the open field test. […] The animals were placed in the center of the open field, and their behavior was video taped for 3 min and analyzed with the aid of ANYMAZE™ video tracking software (Stoelting Co., Ill.). The time spent in the center (anxiety-like measure) and total distance travelled (locomotion) in the entire open field were measured. […]
Statistical analysis was performed in Graphpad Prism (GraphPad Software, Inc) and Statistical Analysis System Software (Version 9.4, Cary, N.C.). Nest-building (grams of cotton), marble burying (number of marbles at least ⅔ buried) and open field measures (time in center and total distance travelled) were expressed as the mean±standard error of the mean (SEM). […] Nesting scores at different time points, marble burying and open field results were analyzed by one-way analysis of variance (ANOVA), whereas overall drug and drug by time interaction effect between 0-5 hours was done by two-way analysis of variance (ANOVA). […]

[4] = acute, 0, 2, 4, 6 mg/kg s.c., 2 h after administration
[5] = chronic regimen (day 32), 0, 2, 4, 6 mg/kg

Sequence of low sensitivity (LS) α4β2 receptors (P43681 29-627 limits assumed): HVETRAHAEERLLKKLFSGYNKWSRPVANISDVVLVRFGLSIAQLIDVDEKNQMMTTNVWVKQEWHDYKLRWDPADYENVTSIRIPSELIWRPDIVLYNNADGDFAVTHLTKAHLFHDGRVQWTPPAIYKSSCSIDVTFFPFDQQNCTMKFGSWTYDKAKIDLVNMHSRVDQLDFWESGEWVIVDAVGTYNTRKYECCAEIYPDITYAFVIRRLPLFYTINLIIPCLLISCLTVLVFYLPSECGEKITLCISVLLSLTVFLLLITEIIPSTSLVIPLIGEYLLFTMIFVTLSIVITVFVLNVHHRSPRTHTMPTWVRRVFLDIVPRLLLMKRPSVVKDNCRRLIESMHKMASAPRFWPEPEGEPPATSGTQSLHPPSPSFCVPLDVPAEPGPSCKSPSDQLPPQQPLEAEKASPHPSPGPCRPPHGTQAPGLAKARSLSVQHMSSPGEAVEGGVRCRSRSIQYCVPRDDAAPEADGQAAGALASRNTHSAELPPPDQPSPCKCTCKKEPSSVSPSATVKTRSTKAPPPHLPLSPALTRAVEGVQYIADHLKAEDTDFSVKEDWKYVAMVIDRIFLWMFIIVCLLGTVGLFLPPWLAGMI
Sequence of low sensitivity (LS) α4β2 receptors (P17787 26-502): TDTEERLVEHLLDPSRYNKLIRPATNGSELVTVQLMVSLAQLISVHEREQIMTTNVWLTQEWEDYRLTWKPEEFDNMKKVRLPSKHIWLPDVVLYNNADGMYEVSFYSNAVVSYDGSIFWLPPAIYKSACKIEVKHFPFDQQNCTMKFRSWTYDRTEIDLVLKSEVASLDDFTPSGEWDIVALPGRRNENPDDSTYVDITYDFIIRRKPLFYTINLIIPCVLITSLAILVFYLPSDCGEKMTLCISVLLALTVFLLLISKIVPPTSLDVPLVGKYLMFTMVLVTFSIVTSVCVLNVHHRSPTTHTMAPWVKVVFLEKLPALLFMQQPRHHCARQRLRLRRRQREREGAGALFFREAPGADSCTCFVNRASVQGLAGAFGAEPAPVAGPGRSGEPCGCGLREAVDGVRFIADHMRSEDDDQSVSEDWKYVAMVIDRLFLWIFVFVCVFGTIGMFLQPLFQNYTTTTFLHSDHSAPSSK

## C=CC(C)(C)c1[nH]c2cc(Br)ccc2c1CCNC [dFBr, 2-[6-bromo-2-(2-methylbut-3-en-2-yl)-1H-indol-3-yl]-N-methylethanamine]
[1]
  potentiation of acetylcholine-induced whole cell responses: 260%
[1]; read-out: EC50 of potentiation
  EC50: 2500 nM
[2]; acute, 2 mg/kg s.c., 0-1 h
  nesting (cotton used) vs control (saline): no significant attenuation of nesting
[2]; acute, 2 mg/kg s.c.
  overall nesting scores vs control (saline): significantly below the control group
[2]; acute, 2 mg/kg s.c., 1-2 h
  nesting (cotton used) vs control (saline): no significant effect
[2]; acute, 2 mg/kg s.c., 2-3 h
  nesting (cotton used) vs control (saline): No significant difference
[2]; acute, 2 mg/kg s.c., 3-4 h
  nesting (cotton used) vs control (saline): not significantly different
[2]; acute, 2 mg/kg s.c., 4-5 h
  nesting (cotton used) vs control (saline): not significantly different
[2]; acute, 2 mg/kg s.c., 5-24 h
  nesting (cotton used) vs control (saline): suppressed the nesting score significantly
[2]; acute, 2 mg/kg s.c., first 5 hours
  fractional nesting score (nesting score divided by average of vehicle group): ~1
[2]; acute, 2 mg/kg s.c., overall 0-5 h
  nesting (cotton used) vs control (saline): did not attenuate nesting
[2]; acute, 4 mg/kg s.c.
  time of greatest suppression of nesting (fractional nesting score): 1 to 2 h
  overall nesting scores vs control (saline): significantly below the control group
[2]; acute, 4 mg/kg s.c., 0-1 h
  nesting (cotton used) vs control (saline): no significant attenuation of nesting
[2]; acute, 4 mg/kg s.c., 1-2 h
  nesting (cotton used) vs control (saline): significantly attenuated nesting
[2]; acute, 4 mg/kg s.c., 2-3 h
  nesting (cotton used) vs control (saline): No significant difference
[2]; acute, 4 mg/kg s.c., 3-4 h
  nesting (cotton used) vs control (saline): significantly reduced
[2]; acute, 4 mg/kg s.c., 4-5 h
  nesting (cotton used) vs control (saline): not significantly different
[2]; acute, 4 mg/kg s.c., 5-24 h
  nesting (cotton used) vs control (saline): suppressed the nesting score significantly
[2]; acute, 4 mg/kg s.c., overall 0-5 h
  nesting (cotton used) vs control (saline): significantly reduced
[2]; acute, 6 mg/kg s.c.
  time of greatest suppression of nesting (fractional nesting score): 1 to 2 h
  overall nesting scores vs control (saline): significantly below the control group
[2]; acute, 6 mg/kg s.c., 0-1 h
  nesting (cotton used) vs control (saline): no significant attenuation of nesting
[2]; acute, 6 mg/kg s.c., 1-2 h
  nesting (cotton used) vs control (saline): significantly attenuated nesting
[2]; acute, 6 mg/kg s.c., 2-3 h
  nesting (cotton used) vs control (saline): significantly reduced
[2]; acute, 6 mg/kg s.c., 3-4 h
  nesting (cotton used) vs control (saline): significantly reduced
[2]; acute, 6 mg/kg s.c., 4-5 h
  nesting (cotton used) vs control (saline): not significantly different
[2]; acute, 6 mg/kg s.c., 5-24 h
  nesting (cotton used) vs control (saline): suppressed the nesting score significantly
[2]; acute, 6 mg/kg s.c., overall 0-5 h
  nesting (cotton used) vs control (saline): significantly reduced
[2]; 2 mg/kg, 1-2 h
  suppression of NB vs control: main attenuating effects
[2]; 4 mg/kg, 0-1 h
  suppression of NB vs control: most effective doses
[2]; 6 mg/kg, 0-1 h
  suppression of NB vs control: most effective doses
[2]; 6 mg/kg, 1-2 h
  suppression of NB vs control: main attenuating effects
[2]; 2 mg/kg
  overall nesting scores vs control: significantly below the control group
[2]; 4 mg/kg
  overall nesting scores vs control: significantly below the control group
[2]; 6 mg/kg
  overall nesting scores vs control: significantly below the control group
[2]; 2-3 h
  effect on NB (ANOVA over dose groups): No significant effect
[2]; 3-4 h
  effect on NB (ANOVA over dose groups): No significant effect
[2]; 4-5 h
  effect on NB (ANOVA over dose groups): No significant effect
[3]; [4]
  time spent in center of the OF (anxiety-like): No significant differences
  total distance traveled (locomotor activity): not different among the treatment groups
[3]; [5]
  time in center: did not differ among treatment groups
  total distance: did not differ among treatment groups
